Counter-ions that a name gives are not always drawn.
Columns and labels:
[1] = system: inward rectifier K+ current (IK1); test: Inward rectifier K+ current recordings in isolated ventricular myocytes of treated dogs; format: in vivo, dog
Source text: After altogether 5 weeks of treatment the dogs were anaesthetized according to standard veterinary procedures and ex vivo ventricular myocytes were directly isolated from the mid-lateral left ventricular free wall using an isolation procedure described by Kubalova et al., which results in isolation of myocytes from the midmyocardial region. Afterwards the animals were humanely euthanized. Recordings of single cell action potentials and K+ currents were made. See Kubalova et al., Abnormal intrastore calcium signaling in chronic heart failure, Proc Nat Acad Sci 2005; 102: 14104-14109. There are two K+ currents which are expected to modulate the resting membrane potential and the action potential duration, and are known to be altered during heart failure, the inward and the outward K+ currents. The inward rectifier K+ current (IK1) is the primary determinant of the resting membrane potential (inward current) and modulates the final phase of repolarization (outward current). Reductions in inward current result in depolarization of the resting potential, while reductions in outward current can contribute to action potential duration prolongation. IK1 was recorded in each of the four groups, data was recorded and analyzed. The peak outward K+ current was recorded in each of the four groups (FIG. 5 bottom), data was recorded and analyzed.

[2] = system: isolated ventricular myocytes; test: Action potentials in ventricular myocytes isolated ex vivo after 5 weeks of treatment (perforated whole cell patch clamp); set-up: species or system dog; conditions: for APD50 compared to the placebo-treated heart failure group / APD90 compared to normal controls / heart failure induced prolongation of the APD90: 0.5 and 1 Hz
Source text: After altogether 5 weeks of treatment the dogs were anaesthetized according to standard veterinary procedures and ex vivo ventricular myocytes were directly isolated from the mid-lateral left ventricular free wall using an isolation procedure described by Kubalova et al., which results in isolation of myocytes from the midmyocardial region. Afterwards the animals were humanely euthanized. Recordings of single cell action potentials and K+ currents were made. See Kubalova et al., Abnormal intrastore calcium signaling in chronic heart failure, Proc Nat Acad Sci 2005; 102: 14104-14109. For measurement of the action potentials myocytes were placed in a laminin coated cell chamber and superfused with a bath solution. Only quiescent myocytes with sharp margins and clear striations were used for the electrophysiological study. Borosilicate glass micropipettes were filled with a pipette solution that was pH adjusted to 7.2. Perforated whole cell patch clamp was used to minimize alterations in the intracellular milieu. Action Potentials (APs) were recorded with the perforated whole cell patch techniques. Action potentials were recorded in isolated ventricular myocytes, which were characterized in the standard manner as the durations to 50% and 90% of repolarization. APs were measured as the average of the last 10 (steady-state) APs, obtained during a train of twenty five APs at each stimulation rate. An average of 2-3 myocytes was measured from each heart failure dog. Action Potentials were recorded in four groups. The following numbers of recordings were obtained and used in the analyzed data (number (n) indicates the number of myocytes): Control (CTRL, untreated, healthy dogs) (n=10) HF-placebo (placebo-treated dogs in heart failure (HF-PL)) (n=17) HF-C-Up bisoprolol, according to conservative up-titration bisoprolol treated dogs in heart failure (n=13) HF-A-Up bisoprolol, according to aggressive up-titration bisoprolol treated dogs in heart failure (n=15) Resting membrane potential was measured at 0.5 Hz and 1 Hz to bracket the physiologic range of resting heart rates (FIG. 1).

[3] = system: dogs with pacing-induced heart failure; format: in vivo
Method: A study was conducted with two groups of conscious dogs with pacing-induced heart failure to determine the tolerance and potential effects of different doses of bisoprolol fumarate. […] ECG (PQ, QRS, RR, QT, QTcF, and QTcV intervals), echocardiography (left ventricular shortening fraction (LVSF) and systemic arterial blood pressure (SBP, DBP, MAP and pulse pressure) were monitored in the two groups. Heart failure was produced by rapid ventricular pacing to reduce left ventricular shortening fraction (LVSF) greater than 15% from baseline.
In the first group, the conservative up-titration study, the dogs were treated with weekly increasing oral doses of 0.005, 0.01, 0.03, 0.05 and 0.1 mg/kg bisoprolol fumarate. In the second group, the aggressive up-titration study, the dogs were treated with weekly increasing doses of 0.01, 0.05, 0.1, 0.5 and 1 mg/kg bisoprolol fumarate on top of a dose of 0.5 mg/kg of enalapril, 4 mg/kg of furosemide, and 0.003 mg/kg of digoxin. These two groups were compared to a placebo group that was treated with the same doses of the standard heart failure therapy (enalapril, furosemide and digoxin) alone.

[4] = system: transient outward K+ current (Ito); test: Transient outward K+ current recordings in isolated ventricular myocytes of treated dogs; format: in vivo, dog
Source text: After altogether 5 weeks of treatment the dogs were anaesthetized according to standard veterinary procedures and ex vivo ventricular myocytes were directly isolated from the mid-lateral left ventricular free wall using an isolation procedure described by Kubalova et al., which results in isolation of myocytes from the midmyocardial region. Afterwards the animals were humanely euthanized. Recordings of single cell action potentials and K+ currents were made. See Kubalova et al., Abnormal intrastore calcium signaling in chronic heart failure, Proc Nat Acad Sci 2005; 102: 14104-14109. There are two K+ currents which are expected to modulate the resting membrane potential and the action potential duration, and are known to be altered during heart failure, the inward and the outward K+ currents. The transient outward K+ current, (Ito) was recorded in all four groups and data was recorded and analyzed.

[5] = aggressive up-titration (HF-A-Up)
[6] = conservative up-titration (HF-C-Up)

In the case of `CC(C)NCC(O)COc1ccc(COCCOC(C)C)cc1` (stereo not drawn) [bisoprolol fumarate], the “inward IK1 current conductance, difference between the groups” value ([1]; all four groups) is reported as “no difference”, the “peak outward IK1 current” value ([1]; conservative up-titration (HF-C-Up) relative to placebo (HF PL) and HF-A-Up) is reported as “increased” and the “APD50 compared to normal control myocytes” value [2, 5] is reported as “did not differ”. The “APD50 compared to the placebo-treated heart failure group” value [2, 5] was “statistically significant reduction”, the “APD90 compared to normal controls” value [2, 5] was “did not differ” and the “heart failure induced prolongation of the APD90” value [2, 5] was “significantly attenuated”. The “APD50 compared to normal control myocytes” value [2, 6] was “did not differ”, the “APD50 compared to the placebo-treated heart failure group” value [2, 6] was “statistically significant reduction” and the “APD90 compared to normal controls” value [2, 6] was “did not differ”. The “heart failure induced prolongation of the APD90” value [2, 6] was “significantly attenuated”, the “HF-induced changes in the action potential durations (particularly APD90 prolongation)” value ([2]; summary, both conservative and aggressive up-titration dosing regimens, physiologically relevant heart rates) was “significantly attenuated and even reversed to the physiological normal” and the tolerance ([3]; dog, in vivo, po) was “well tolerated”. For the same compound, the “cardioselective β-blockade effect (prolongation of PQ interval and reduction of heart rate)” value ([3]; doses used in both up-titration groups, dogs with heart failure) was “near to maximum cardioselective β-blockade effect”, the “effects of heart failure on Ito” value ([4]; aggressive up-titration protocol (HF-A-Up Bis)) was “did not alter” and the “heart failure induced reductions in Ito” value ([4]; conservative up-titration protocol (HF-C-Up Bis), at the two highest test potentials (+40 and +50 mV)) was “significantly attenuated”.
